Reference: ChEMBL document CHEMBL3352227, “Synthesis, antimycobacterial and antibacterial evaluation of l-[(1R, 2S)-2-fluorocyclopropyl]fluoroquinolone derivatives containing an oxime functional moiety” (Eur J Med Chem, 2014)
Values after ≈ are worked out from the molar mass of the structure shown.

Columns and labels:
Type in all cases: functional
[1] = tested on: Mycobacterium tuberculosis; assay: Antimycobacterial activity against Mycobacterium tuberculosis H37Rv ATCC 27294 by MABA method
Escherichia coli [2] = assay: Antibacterial activity against Escherichia coli ATCC 25922 after 18 to 24 hrs by standard twofold serial dilution method
Escherichia coli [3] = assay: Antibacterial activity against Escherichia coli 12-1 after 18 to 24 hrs by standard twofold serial dilution method
Escherichia coli [4] = assay: Antibacterial activity against extended-spectrum beta-lactamase producing Escherichia coli 12-2 after 18 to 24 hrs by standard twofold serial dilution method
Escherichia coli [5] = assay: Antibacterial activity against extended-spectrum beta-lactamase producing Escherichia coli 12-3 after 18 to 24 hrs by standard twofold serial dilution method
Escherichia coli [6] = assay: Antibacterial activity against extended-spectrum beta-lactamase producing Escherichia coli 12-14 after 18 to 24 hrs by standard twofold serial dilution method
Escherichia coli [7] = assay: Antibacterial activity against extended-spectrum beta-lactamase producing Escherichia coli 12-15 after 18 to 24 hrs by standard twofold serial dilution method
Klebsiella pneumoniae [8] = assay: Antibacterial activity against Klebsiella pneumoniae 12-1 after 18 to 24 hrs by standard twofold serial dilution method
Klebsiella pneumoniae [9] = assay: Antibacterial activity against Klebsiella pneumoniae 12-2 after 18 to 24 hrs by standard twofold serial dilution method
Klebsiella pneumoniae [10] = assay: Antibacterial activity against Klebsiella pneumoniae 12-4 after 18 to 24 hrs by standard twofold serial dilution method
Klebsiella pneumoniae [11] = assay: Antibacterial activity against extended-spectrum beta-lactamase producin Klebsiella pneumoniae 12-3 after 18 to 24 hrs by standard twofold serial dilution method
Klebsiella pneumoniae [12] = assay: Antibacterial activity against extended-spectrum beta-lactamase producin Klebsiella pneumoniae 12-4 after 18 to 24 hrs by standard twofold serial dilution method
Klebsiella pneumoniae [13] = assay: Antibacterial activity against extended-spectrum beta-lactamase producin Klebsiella pneumoniae 12-7 after 18 to 24 hrs by standard twofold serial dilution method
Klebsiella pneumoniae [14] = assay: Antibacterial activity against extended-spectrum beta-lactamase producin Klebsiella pneumoniae 12-14 after 18 to 24 hrs by standard twofold serial dilution method
Pseudomonas aeruginosa [15] = assay: Antibacterial activity against Pseudomonas aeruginosa 12-12 after 18 to 24 hrs by standard twofold serial dilution method
Pseudomonas aeruginosa [16] = assay: Antibacterial activity against Pseudomonas aeruginosa 12-14 after 18 to 24 hrs by standard twofold serial dilution method
Staphylococcus aureus [17] = assay: Antibacterial activity against Staphylococcus aureus ATCC 25923 after 18 to 24 hrs by standard twofold serial dilution method
Staphylococcus aureus [18] = assay: Antibacterial activity against methicillin-sensitive Staphylococcus aureus 12-1 after 18 to 24 hrs by standard twofold serial dilution method
Staphylococcus aureus [19] = assay: Antibacterial activity against methicillin-sensitive Staphylococcus aureus 12-2 after 18 to 24 hrs by standard twofold serial dilution method
Staphylococcus aureus [20] = assay: Antibacterial activity against methicillin-sensitive Staphylococcus aureus 12-4 after 18 to 24 hrs by standard twofold serial dilution method
Staphylococcus aureus [21] = assay: Antibacterial activity against methicillin-sensitive Staphylococcus aureus 12-5 after 18 to 24 hrs by standard twofold serial dilution method
Staphylococcus aureus [22] = assay: Antibacterial activity against methicillin-resistant Staphylococcus aureus 12-2 after 18 to 24 hrs by standard twofold serial dilution method
Staphylococcus aureus [23] = assay: Antibacterial activity against methicillin-resistant Staphylococcus aureus 12-4 after 18 to 24 hrs by standard twofold serial dilution method
Staphylococcus aureus [24] = assay: Antibacterial activity against methicillin-resistant Staphylococcus aureus 12-5 after 18 to 24 hrs by standard twofold serial dilution method
[25] = tested on: Staphylococcus epidermidis; assay: Antibacterial activity against methicillin-sensitive Staphylococcus epidermidis 12-1 after 18 to 24 hrs by standard twofold serial dilution method
[26] = tested on: Staphylococcus epidermidis; assay: Antibacterial activity against methicillin-sensitive Staphylococcus epidermidis 12-3 after 18 to 24 hrs by standard twofold serial dilution method
[27] = tested on: Staphylococcus epidermidis; assay: Antibacterial activity against methicillin-sensitive Staphylococcus epidermidis 12-6 after 18 to 24 hrs by standard twofold serial dilution method
[28] = tested on: Staphylococcus epidermidis; assay: Antibacterial activity against methicillin-sensitive Staphylococcus epidermidis 12-8 after 18 to 24 hrs by standard twofold serial dilution method
[29] = tested on: Staphylococcus epidermidis; assay: Antibacterial activity against methicillin-resistant Staphylococcus epidermidis 12-1 after 18 to 24 hrs by standard twofold serial dilution method
[30] = tested on: Staphylococcus epidermidis; assay: Antibacterial activity against methicillin-resistant Staphylococcus epidermidis 12-6 after 18 to 24 hrs by standard twofold serial dilution method
Streptococcus pneumoniae [31] = assay: Antibacterial activity against Streptococcus pneumoniae ATCC 49619 after 18 to 24 hrs by standard twofold serial dilution method
Streptococcus pneumoniae [32] = assay: Antibacterial activity against Streptococcus pneumoniae 12-18 after 18 to 24 hrs by standard twofold serial dilution method

| SMILES | MIC [1] | MIC (Escherichia coli [2]) | MIC (Escherichia coli [7]) | MIC (Klebsiella pneumoniae [8]) | MIC (Klebsiella pneumoniae [9]) | MIC (Klebsiella pneumoniae [10]) | MIC (Klebsiella pneumoniae [11]) | MIC (Klebsiella pneumoniae [12]) | MIC (Klebsiella pneumoniae [13]) | MIC (Klebsiella pneumoniae [14]) | MIC (Pseudomonas aeruginosa [16]) | MIC (Staphylococcus aureus [17]) | MIC (Staphylococcus aureus [18]) | MIC (Staphylococcus aureus [19]) | MIC (Staphylococcus aureus [20]) | MIC (Staphylococcus aureus [21]) | MIC (Staphylococcus aureus [22]) | MIC (Staphylococcus aureus [23]) | MIC (Staphylococcus aureus [24]) | MIC [25] | further results |
| --- | --- | --- | --- | --- | --- | --- | --- | --- | --- | --- | --- | --- | --- | --- | --- | --- | --- | --- | --- | --- | --- |
| CO/N=C1/CN(c2nc3c(cc2F)c(=O)c(C(=O)O)cn3[C@@H]2C[C@@H]2F)[C@@H]1CN | 4 µg/mL (≈ 10.2 µM) | 0.25 µg/mL (≈ 0.636 µM) | > 128 µg/mL | 1 µg/mL (≈ 2.54 µM) | 0.5 µg/mL (≈ 1.27 µM) | 0.5 µg/mL (≈ 1.27 µM) | > 128 µg/mL | 16 µg/mL (≈ 40.7 µM) | 4 µg/mL (≈ 10.2 µM) | 128 µg/mL (≈ 325 µM) | 128 µg/mL (≈ 325 µM) | 0.25 µg/mL (≈ 0.636 µM) | 1 µg/mL (≈ 2.54 µM) | 0.5 µg/mL (≈ 1.27 µM) | 0.5 µg/mL (≈ 1.27 µM) | 0.5 µg/mL (≈ 1.27 µM) | > 128 µg/mL | > 128 µg/mL | > 128 µg/mL | 0.5 µg/mL (≈ 1.27 µM) | MIC (Escherichia coli [3]): 2 µg/mL (≈ 5.08 µM); MIC (Escherichia coli [4]): > 128 µg/mL; MIC (Escherichia coli [5]): 16 µg/mL (≈ 40.7 µM); MIC (Escherichia coli [6]): > 128 µg/mL; MIC (Pseudomonas aeruginosa [15]): 2 µg/mL (≈ 5.08 µM); MIC [26]: 0.5 µg/mL (≈ 1.27 µM); MIC [27]: 0.5 µg/mL (≈ 1.27 µM); MIC [28]: 32 µg/mL (≈ 81.4 µM); MIC [29]: 64 µg/mL (≈ 163 µM); MIC [30]: 64 µg/mL (≈ 163 µM); MIC (Streptococcus pneumoniae [31]): 1 µg/mL (≈ 2.54 µM); MIC (Streptococcus pneumoniae [32]): 4 µg/mL (≈ 10.2 µM) |
| CCO/N=C1/CN(c2nc3c(cc2F)c(=O)c(C(=O)O)cn3[C@@H]2C[C@@H]2F)[C@@H]1CN | 4 µg/mL (≈ 9.82 µM) | 0.5 µg/mL (≈ 1.23 µM) | > 128 µg/mL | 1 µg/mL (≈ 2.45 µM) | 1 µg/mL (≈ 2.45 µM) | 1 µg/mL (≈ 2.45 µM) | > 128 µg/mL | 32 µg/mL (≈ 78.6 µM) | 8 µg/mL (≈ 19.6 µM) | > 128 µg/mL | 128 µg/mL (≈ 314 µM) | 0.25 µg/mL (≈ 0.614 µM) | 0.5 µg/mL (≈ 1.23 µM) | 0.5 µg/mL (≈ 1.23 µM) | 0.25 µg/mL (≈ 0.614 µM) | 0.5 µg/mL (≈ 1.23 µM) | > 128 µg/mL | > 128 µg/mL | > 128 µg/mL | 0.5 µg/mL (≈ 1.23 µM) | MIC (Escherichia coli [3]): 2 µg/mL (≈ 4.91 µM); MIC (Escherichia coli [4]): > 128 µg/mL; MIC (Escherichia coli [5]): 32 µg/mL (≈ 78.6 µM); MIC (Escherichia coli [6]): > 128 µg/mL; MIC (Pseudomonas aeruginosa [15]): 4 µg/mL (≈ 9.82 µM); MIC [26]: 2 µg/mL (≈ 4.91 µM); MIC [27]: 0.5 µg/mL (≈ 1.23 µM); MIC [28]: 32 µg/mL (≈ 78.6 µM); MIC [29]: 64 µg/mL (≈ 157 µM); MIC [30]: 32 µg/mL (≈ 78.6 µM); MIC (Streptococcus pneumoniae [31]): 2 µg/mL (≈ 4.91 µM); MIC (Streptococcus pneumoniae [32]): 8 µg/mL (≈ 19.6 µM) |
| NC[C@@H]1/C(=N\OCc2ccccc2)CN1c1nc2c(cc1F)c(=O)c(C(=O)O)cn2[C@@H]1C[C@@H]1F | 2 µg/mL (≈ 4.26 µM) | 0.5 µg/mL (≈ 1.07 µM) | > 128 µg/mL | 1 µg/mL (≈ 2.13 µM) | 1 µg/mL (≈ 2.13 µM) | 1 µg/mL (≈ 2.13 µM) | > 128 µg/mL | 32 µg/mL (≈ 68.2 µM) | 8 µg/mL (≈ 17 µM) | 128 µg/mL (≈ 273 µM) | 128 µg/mL (≈ 273 µM) | 0.5 µg/mL (≈ 1.07 µM) | 0.5 µg/mL (≈ 1.07 µM) | 0.25 µg/mL (≈ 0.533 µM) | 0.25 µg/mL (≈ 0.533 µM) | 0.25 µg/mL (≈ 0.533 µM) | 128 µg/mL (≈ 273 µM) | 128 µg/mL (≈ 273 µM) | 128 µg/mL (≈ 273 µM) | 0.5 µg/mL (≈ 1.07 µM) | MIC (Escherichia coli [3]): 4 µg/mL (≈ 8.52 µM); MIC (Escherichia coli [4]): > 128 µg/mL; MIC (Escherichia coli [5]): 16 µg/mL (≈ 34.1 µM); MIC (Escherichia coli [6]): > 128 µg/mL; MIC (Pseudomonas aeruginosa [15]): 8 µg/mL (≈ 17 µM); MIC [26]: 1 µg/mL (≈ 2.13 µM); MIC [27]: 0.5 µg/mL (≈ 1.07 µM); MIC [28]: 32 µg/mL (≈ 68.2 µM); MIC [29]: 32 µg/mL (≈ 68.2 µM); MIC [30]: 32 µg/mL (≈ 68.2 µM); MIC (Streptococcus pneumoniae [31]): 1 µg/mL (≈ 2.13 µM); MIC (Streptococcus pneumoniae [32]): 4 µg/mL (≈ 8.52 µM) |
| O=C(O)c1cn(C2CC2)c2cc(N3CCNCC3)c(F)cc2c1=O [CIPROFLOXACIN] | 0.25 µg/mL (≈ 0.754 µM) | < 0.008 µg/mL | 64 µg/mL (≈ 193 µM) | 0.125 µg/mL (≈ 0.377 µM) | 0.03 µg/mL (≈ 0.0905 µM) | < 0.008 µg/mL | 32 µg/mL (≈ 96.6 µM) | 4 µg/mL (≈ 12.1 µM) | 0.5 µg/mL (≈ 1.51 µM) | 64 µg/mL (≈ 193 µM) | 32 µg/mL (≈ 96.6 µM) | 0.25 µg/mL (≈ 0.754 µM) | 0.25 µg/mL (≈ 0.754 µM) | 0.25 µg/mL (≈ 0.754 µM) | 0.25 µg/mL (≈ 0.754 µM) | 0.25 µg/mL (≈ 0.754 µM) | 64 µg/mL (≈ 193 µM) | 64 µg/mL (≈ 193 µM) | 32 µg/mL (≈ 96.6 µM) | 0.25 µg/mL (≈ 0.754 µM) | MIC [26]: 2 µg/mL (≈ 6.04 µM); MIC [27]: 0.25 µg/mL (≈ 0.754 µM); MIC [28]: 4 µg/mL (≈ 12.1 µM); MIC [29]: 8 µg/mL (≈ 24.1 µM); MIC [30]: 16 µg/mL (≈ 48.3 µM); MIC (Streptococcus pneumoniae [31]): 0.25 µg/mL (≈ 0.754 µM); MIC (Streptococcus pneumoniae [32]): 1 µg/mL (≈ 3.02 µM) |
